# From US6949250B2, “Selective algaecides for control of cyanochloronta” (The United States of America as represented by the …, priority 2002, dated 2005)
# Like-named read-outs stand apart in the source and are kept apart here.
# Legend:
# Oscillatoria perornata = assay: Rapid bioassay screening for selective algicides (LOEC, LCIC); assay type: cell-based; conditions: for MIC: read-out: LCIC (lowest-complete-inhibition concentration), Oscillatoria perornata; for minimal effective concentration: read-out: LOEC (lowest-observed-effect concentration), Oscillatoria perornata
# Text: (§1) These were screened in the laboratory by the method of Schrader et al. (K. K. Schrader, M. Q. de Regt, C. S. Tucker and S. O. Duke, A rapid bioassay for selective algicides. Weed Technol. (1997), vol. 11, pp. 767-774) for algicidal activity.
# (§2) The anthraquinone derivatives were screened for selective toxicity towards Oscillatoria perornata, previously isolated from a Mississippi catfish pond, using the method of Schrader et al. (1997). The green alga Selenastrum capricornutum (obtained from the United States Environmental Protection Agency, Corvallis, Oreg.) was used as the representative green algal species in the bioassay since it is a common species found in southeastern United States catfish ponds. Absorbance readings were graphed, and graphs were used to determine the LOEC (lowest-observed-effect concentration) and the LCIC (lowest-complete-inhibition concentration) for each anthraquinone analog. In addition, a 96-hour 50% inhibition concentration (IC50) was determined for DNA1-19-1 and DNA2-59-1 by using the method described by Schrader et al. (1998b). Stock solutions of DNA1-19-1 and DNA2-59-1 were prepared so that final concentrations screened for 96-hour IC50 determinations were as follows: 1) 0, 0.01, 0.033, 0.1, 0.333, 1.0, 3.3, and 10.0 μM DNA1-19-1 for both O. perornata and S. capricornutum; 2) 0, 0.003, 0.01, 0.033, 0.1, 0.333, 1.0, and 3.333 μM DNA2-59-1 for O. perornata; and 3) 0, 0.1, 0.333, 1.0, 3.333, 10.0, 33.333, and 100.0 μM DNA2-59-1 for S. capricornutum. Estimation of the IC50 was determined by plotting 96-hour absorbance readings against logarithmic dilution values of the anthraquinone analogs. The screening results of the anthraquinone derivatives and commercially available analogs of anthraquinone are presented in Tables 1 and 2, respectively. The results in Table 1 reveal that DNA1-19-1 and DNA2-59-1 are the most promising analogs since these two compounds had the lowest LOEC and LCIC values for O. perornata (10 nM and 100 nM, respectively). Based upon IC50 results in Table 3, DNA2-59-1 appears to be more toxic and selective towards O. perornata than DNA1-19-1.
# as §2, with “(A rapid bioassay for selective algicides. Weed Technol. (1997), vol. 11, pp. 767-774).” for “(1997).”, “(K. K. Schradar, M. Q. de Regt, P. D. Tidwell, C. S. Tucker and S. O. Duke, Selective growth inhibition of the musty-odor producing cyanobacterium Oscillatoria cf. chalybea by natural compounds. Bull. Environ. Contam. Toxicol. (1998a), vol.60, pp. 651-658).” for “(1998b).”, “The screening results of the anthraquinone derivatives and commercially available analogs of anthraquinone are presented in Tables 1 and 2, respectively. The results in Table 1 reveal that DNA1-19-1 and DNA2-59-1 are the most promising analogs since these two compounds had the lowest LOEC and LCIC values for O. perornata (10 nM and 100 nM, respectively). Based upon IC50 results in Table 3, DNA2-59-1 appears to be more toxic and selective towards O. perornata than DNA1-19-1.” left out
# [1] = tested on: Selenastrum capricornutum; assay: as above; assay type: cell-based; conditions: for MIC / minimal effective concentration: Selenastrum capricornutum; for MIC: read-out: LCIC (lowest-complete-inhibition concentration), Selenastrum capricornutum; for minimal effective concentration: read-out: LOEC (lowest-observed-effect concentration), Selenastrum capricornutum
# Text: as §1, §2
# as §2, with “(A rapid bioassay for selective algicides. Weed Technol. (1997), vol. 11, pp. 767-774).” for “(1997).”, “(K. K. Schradar, M. Q. de Regt, P. D. Tidwell, C. S. Tucker and S. O. Duke, Selective growth inhibition of the musty-odor producing cyanobacterium Oscillatoria cf. chalybea by natural compounds. Bull. Environ. Contam. Toxicol. (1998a), vol.60, pp. 651-658).” for “(1998b).”, “The screening results of the anthraquinone derivatives and commercially available analogs of anthraquinone are presented in Tables 1 and 2, respectively. The results in Table 1 reveal that DNA1-19-1 and DNA2-59-1 are the most promising analogs since these two compounds had the lowest LOEC and LCIC values for O. perornata (10 nM and 100 nM, respectively). Based upon IC50 results in Table 3, DNA2-59-1 appears to be more toxic and selective towards O. perornata than DNA1-19-1.” left out
# [2] = Planktothrix perornata, rapid screening
SMILES,MIC (Oscillatoria perornata; [2]) [µM],MIC ([1]; rapid screening) [µM],"LCIC (lowest-complete-inhibition concentration), Oscillatoria perornata (Oscillatoria perornata; rapid screening)","LCIC (lowest-complete-inhibition concentration), Selenastrum capricornutum ([1]; rapid screening)","LOEC (lowest-observed-effect concentration), Selenastrum capricornutum ([1]; rapid screening)","LOEC (lowest-observed-effect concentration), Oscillatoria perornata (Oscillatoria perornata; rapid screening)",other results
"O=C1c2ccccc2C(=O)c2c(O)ccc(O)c21 [1,4-dihydroxyanthraquinone, reference compound]",> 100,> 100,,,,,
"O=C1c2cccc(O)c2C(=O)c2c(O)cccc21 [1,8-dihydroxyanthraquinone, reference compound]",100,> 100,,,,,
"CNc1cccc2c1C(=O)c1ccccc1C2=O [1-(methylamino) anthraquinone, reference compound]",,,,,,,MIC (Oscillatoria perornata; Planktothrix perornata): 100 µM; MIC [1]: > 100 µM
"Nc1cccc2c1C(=O)c1ccccc1C2=O [1-aminoanthraquinone, reference compound]",100,> 100,,,,,
"Nc1ccc2c(c1)C(=O)c1ccccc1C2=O [2-aminoanthraquinone, reference compound]",> 100,> 100,,,,,
"O=C1c2ccccc2C(=O)c2cc(CO)ccc21 [2-hydroxymethyl-anthraquinone, reference compound]",,,,,,,MIC (Oscillatoria perornata; Planktothrix perornata): 10 µM; MIC [1]: 100 µM
"CN(C)CCCNCc1ccc2c(c1)C(=O)c1ccccc1C2=O.O=P(O)(O)O.O=P(O)(O)O [DNA2-23-1, 2-[Methylamino-N-(propyl-3′-N,N-dimethylamino)]-9,10-anthraquinone diphosphate]",,,"1,000 nM","10,000 nM","10,000 nM",,minimal effective concentration (Oscillatoria perornata; rapid screening): 0.1 µM
"CCN(CC)CCCNCc1ccc2c(c1)C(=O)c1ccccc1C2=O.O=P(O)(O)O.O=P(O)(O)O [DNA2-25-1, 2-[Methylamino-N-(propyl-3′-N,N-diethylaminopropyl)]-9,10-anthraquinone diphosphate]",,,,"10,000 nM","10,000 nM",,MIC (Oscillatoria perornata; rapid screening): 0.1 µM; minimal effective concentration (Oscillatoria perornata; rapid screening): 0.1 µM
"CC(C)N(Cc1ccc2c(c1)C(=O)c1ccccc1C2=O)C(C)C.O=P(O)(O)O [DNA2-49-1, 2-[Methylamino-N,N-(di-1′-methylethyl)]-9,10-anthraquinone monophosphate]",,,"1,000 nM",1e+06 nM,"100,000 nM","1,000 nM",
"CCN(CC)Cc1ccc2c(c1)C(=O)c1ccccc1C2=O.O=P(O)(O)O [DNA2-51-1, 2-[Methylamino-N,N-(diethyl)]-9,10-anthraquinone monophosphate]",,,,"100,000 nM","10,000 nM",,MIC (Oscillatoria perornata; rapid screening): 0.1 µM; minimal effective concentration (Oscillatoria perornata; rapid screening): 0.1 µM
"CCCC(C)NCc1ccc2c(c1)C(=O)c1ccccc1C2=O.O=P(O)(O)O (stereo not shown) [DNA2-53-1, 2-[Methylamino-N-(1′-methylbutyl)]-9,10-anthraquinone monophosphate]",,,,"100,000 nM","100,000 nM",,MIC (Oscillatoria perornata; rapid screening): 0.1 µM; minimal effective concentration (Oscillatoria perornata; rapid screening): 0.1 µM
"CCCCCNCc1ccc2c(c1)C(=O)c1ccccc1C2=O.O=P(O)(O)O [DNA2-55-1, 2-[Methylamino-N-(pentyl)]-9,10-anthraquinone monophosphate]",,,"1,000 nM","100,000 nM","100,000 nM","1,000 nM",
"CCCCN(CCCC)Cc1ccc2c(c1)C(=O)c1ccccc1C2=O.O=P(O)(O)O [DNA2-57-1, 2-[Methylamino-N,N-(dibutyl)]-9,10-anthraquinone monophosphate]",,,"1,000 nM",1e+06 nM,"100,000 nM","1,000 nM",
"CCN(CC)CCCNC(C)c1ccc2c(c1)C(=O)c1ccccc1C2=O (stereo not shown) [DNA2-87-1, 2-[1′-Amino-N-(propyl-3″-N,N-diethylamino)ethyl]-9,10-anthraquinone]",,,"100,000 nM","100,000 nM","100,000 nM","1,000 nM",
"CC(C)NC(C)c1ccc2c(c1)C(=O)c1ccccc1C2=O (stereo not shown) [DNA2-89-1, 2-[1′-Amino-N-(1′-methylethyl)ethyl]-9,10-anthraquinone 9,10-anthraquinone]",,,"1,000 nM","100,000 nM","100,000 nM","1,000 nM",
"CCN(CC)CCCNc1cccc2c1C(=O)c1ccccc1C2=O.O=P(O)(O)O [DNA2-91-1, 1-amino-N-(propyl-3′-N,N-diethylamino)-9,10-anthraquinone phosphate]",,,"10,000 nM","100,000 nM","100,000 nM","10,000 nM",
"CN(C)CCCNc1cccc2c1C(=O)c1ccccc1C2=O.O=P(O)(O)O [DNA2-93-1, 1-amino-N-(propyl-3′-N,N-dimethylamino)-9,10-anthraquinone phosphate]",,,"1,000 nM","100,000 nM","100,000 nM","1,000 nM",
"COCCOc1ccc2c(c1)C(=O)c1ccccc1C2=O [DNA2-97-2, 2-(2-Methoxyethoxy)-9,10-anthraquinone]",10,> 100,,,,,minimal effective concentration (Oscillatoria perornata; [2]): 10 µM; minimal effective concentration ([1]; rapid screening): > 100 µM
"O=C1c2ccccc2C(=O)c2cc(OCCOCCOCCO)ccc21 [DNA2-99-2, 2-[2-[2-(2-Hydroxyethoxy)ethoxy]ethoxy]-9,10-anthraquinone]",10,> 100,,,,,minimal effective concentration (Oscillatoria perornata; [2]): 10 µM; minimal effective concentration ([1]; rapid screening): > 100 µM
"COCCOCCOc1ccc2c(c1)C(=O)c1ccccc1C2=O [DNA3-5-1, 2-[2-(2-Methoxyethoxy)ethoxy]-9,10-anthraquinone]",10,> 100,,,,,minimal effective concentration (Oscillatoria perornata; [2]): 0.1 µM; minimal effective concentration ([1]; rapid screening): > 100 µM
"COCCOCCOc1cccc2c1C(=O)c1ccccc1C2=O [DNA3-7-1, 1-[2-(2-Methoxyethoxy)ethoxy]-9,10-anthraquinone]",100,> 100,,,,,minimal effective concentration (Oscillatoria perornata; [2]): 10 µM; minimal effective concentration ([1]; rapid screening): > 100 µM
"COCCOCCOCCOc1ccc2c(c1)C(=O)c1ccccc1C2=O [DNA3-9-1, 2-[2-[2-(2-methoxyethoxy)ethoxy]ethoxy]-9,10-anthraquinone]",10,> 100,,,,,minimal effective concentration (Oscillatoria perornata; [2]): 10 µM; minimal effective concentration ([1]; rapid screening): > 100 µM
